Values after ≈ are worked out from the molar mass of the structure shown.
Columns and labels:
[1] = tested on: Staphylococcus aureus H228; experiment: Antibacterial activity, microtitration dilution method (MIC); type: cell-based
Description: (§1) The compounds of the invention display antibacterial activity when tested by the microtitration dilution method as described in Heifetz, et al., Antimicr. Agents. & Chemoth. 6:124 (1974) which is incorporated herein by reference.
(§2) By use of the above referenced method, the following minimum inhibitory concentration values (MICs in µg/mL) were obtained for representative compounds of the invention vs. clinically relevant gram positive pathogens which have become highly resistant to conventional therapy in recent years.

[2] = tested on: Staphylococcus aureus UC-76; experiment: as above; type: cell-based
Description: as §1, §2

[3] = tested on: Streptococcus pneumonia 5V-1; experiment: as above; type: cell-based
Description: as §1, §2

[4] = tested on: Enterococcus foecalis MGH2; experiment: as above; type: cell-based
Description: as §1, §2

[5] = tested on: Streptococcus pyogenes C203; experiment: as above; type: cell-based
Description: as §1, §2

HIV-1iiib = experiment: Anti-HIV-1 activity, acute infection of H9 cells; type: cell-based; settings: Human immunodeficiency virus 1; H9 cell line infected with HIV-1iiib; reverse transcriptase assay at 4 and 7 days post infection; read-out: Concentration for 50% Protection
Protocol: Using the general methods of Pauwels et al., (J. Virol. Methods, 16, 171-185, 1987) and Mann et al. (AIDS Research and Human Retroviruses, 253-255, 1989) anti-viral assays of acute HIV-1 infection were performed in the H9 cell line. Cultures were batch infected in 1 ml of RPM1 1640 media/10% fetal calf serum containing 10^7 cells and 10^5 infectious doses of HIV-1iiib for an effective multiplicity of infection of 0.01. After 2 hours of viral absorption, cells were washed once and plated in 96-well microtiter plates at a density of 10^4 cells per well. Test compounds were added to produce the desired concentration of drug and 0.2% DMSO in a final volume of 200 µl. Uninfected parallel cultures were maintained for XTT cytotoxicity assay at 7 days post infection. Cultures were tested for viral replication by reverse transcriptase assay at 4 and 7 days post infection.

HIV-I Protease = target: T1, HIV-I Protease (Human immunodeficiency virus type 1 group M subtype B, UniProt P04585); experiment: HIV protease inhibition (hydrolysis of undecapeptide substrate, HPLC readout); type: biochemical; settings: 40 µM substrate, pH 4.7, 37 °C, 5 minutes; read-out: 50% Inhibition Concentration (Averaged)
T1 construct: HIV-I Protease: The enzyme is obtained from Bachem Bioscience Inc; purchased Bachem Bioscience Inc
Protocol: • DTT Buffer: 1.0 mM dithiothreitol (DTT) was prepared fresh daily in 0.1% polyethylene glycol (mw 8000) 80 mM NaOAc, 160 mM NaCl, 1.0 mM EDTA, and brought to pH 4.7 with HCl. • HIV-I Protease: The enzyme is obtained from Bachem Bioscience Inc. The undiluted enzyme is thawed from -80 °C and diluted 50-fold with DTT buffer. The solution is always kept at 0 °C on ice water and used in the experiment within 20 minutes after thawing. • Enzyme Substrate: Substrate III from Bachem Bioscience Inc. is the undecapeptide H-His-Lys-Ala-Arg-Val-Leu-p-Nitrophenylalanine-Glu-Ala-Norleucine-ser-NH2 (> 97 % purity). A 200. µM stock solution in DTT buffer is prepared and stored on ice. Substrate solution is prepared fresh daily. • Test Compound: 10 mM inhibitor (I) in dimethyl sulfoxide (DMSO) is diluted to 200 µM with DTT buffer. From the 200 µM stock solution is made a 10 µM stock solution with 2% DMSO in DTT buffer. The two inhibitor solutions are used to make final [I] = 100, 50, 20, 10, 5, 2, 1, 0.5 and 0 µM with 2% DMSO in DTT buffer in each reaction well (total inhibitor volume of 50 µl).
To each reaction well is added 20 µl of substrate (final concentration of 40 µM), 50 µl of inhibitor (at a concentration such that final dilution will produce the test concentration) and 20 µl of DTT buffer. The reaction plate (96 wells) is incubated at 37 °C for at least 5 minutes.
10 µl of the diluted protease is added to the reaction well while the reaction plate is shaking. Once shaken for 10 seconds, the plate is returned to the heating block at 37 °C. (Final reaction volume = 100 µl.)
The reaction is incubated for 5 minutes at 37 °C. The reaction is stopped by placing the reaction plate on the shaker and adding 20 µl of 10% trifluoroacetic acid (TFA) and shaking for 10 seconds. The amount of proteolysis is then determined by separation of noncleaved substrate and two cleaved products with reverse-phase HPLC, while measuring absorbance at 220 nm to determine the relative peak areas of the three components. The relative peak areas are used to calculate % conversion to product as a function of inhibitor concentration. The data is plotted as % Control (the ratio of % conversion in the presence and absence of inhibitor x 100) versus inhibitor concentration and fit with the equation Y= 100/1+(X/IC50)^A, where IC50 is the inhibitor concentration at 50% inhibition and A is the slope of the inhibition curve.

[6] = read-out: minimum inhibitory concentration (MIC)

With “3-[1-(Cyclohexylthio)-3-methylbutyl]-4-hydroxy-6-phenyl-2H-pyran-2-one [Example 128]” as the molecule, how does the “minimum inhibitory concentration (MIC)” value [1] read?
The value was 12.5 µg/mL.

What about the “minimum inhibitory concentration (MIC)” value [2] of the same molecule?
Its value is 12.5 µg/mL.

What about the “minimum inhibitory concentration (MIC)” value [3] of the same molecule?
Its value is 25 µg/mL.

What about the “minimum inhibitory concentration (MIC)” value [4] of the same molecule?
The value was 25 µg/mL.

What about the “minimum inhibitory concentration (MIC)” value [5] of the same molecule?
The value was 25 µg/mL.

For O=c1oc(-c2ccc(OCc3ccccc3)cc2)cc(O)c1SCCc1ccccc1 [Example 26, 4-Hydroxy-3-[(2-phenylethyl)thio]-6-[4-(phenylmethoxy)phenyl] 2-2H-pyran-2-one], which EC50 (HIV-1iiib) is on record?
Its EC50 is 17000 nM.

And the IC50 (HIV-I Protease)?
The IC50 was 330 nM.

CC(C)(C)CC(SC1CCCCC1)c1c(O)cc(-c2ccccc2)oc1=O (racemic) [Example 92, 3-[1-(Cyclohexylthio)-3,3-dimethylbutyl]-4-hydroxy-6-phenyl-2H-pyran-2-one] was tested. Which MIC [1, 6] did it give?
Its MIC is 25 µg/mL (≈ 64.7 µM).

And the MIC ([2]; UC76, read-out: minimum inhibitory concentration (MIC))?
The MIC was 25 µg/mL (≈ 64.7 µM).

What about the MIC ([3]; Streptococcus pneumoniae, 5V1, read-out: minimum inhibitory concentration (MIC)) of the same molecule?
The MIC was 50 µg/mL (≈ 129 µM).

And the MIC [4, 6]?
The MIC was 100 µg/mL (≈ 259 µM).

And the MIC [5, 6]?
The MIC was 50 µg/mL (≈ 129 µM).

For O=c1oc(-c2ccc(OCc3cccnc3)cc2)cc(O)c1SCCc1ccccc1 [Example 64, 4-Hydroxy-3-[(2-phenylethyl)thio]-6-[4-(3-pyridinylmethoxy)phenyl]-2H-pyran-2-one], which EC50 (HIV-1iiib) is on record?
The EC50 was 3000 nM.

And the IC50 (HIV-I Protease)?
The IC50 was 1500 nM.

What does the source list for Cc1cc(C)cc(-c2cc(O)c(SCc3ccccc3)c(=O)o2)c1 [Example 56, 6-(3,5-Dimethylphenyl)-4-hydroxy-3-[(phenylmethyl)-thio]-2H-pyran-2-one]?
EC50 (HIV-1iiib): 29000 nM; IC50 (HIV-I Protease): 130 nM

Reference: patent EP0729465B1, “PYRONE DERIVATIVES AS PROTEASE INHIBITORS AND ANTIVIRAL AGENTS” (PARKE, DAVIS & COMPANY, priority 1993, dated 1995)
